# Reference: patent US8551963B2, “Imidazolothiazole compounds and methods of use thereof” (Ambit Biosciences Corporation, priority 2008, dated 2013)
# Where “and” joins values, the source holds several entries; their conditions need not be identical. Identical values can stand only once.
# Experiments:
# CYP2C8 = CYP2C8 (Homo sapiens (Human), UniProt P10632); experiment: Time dependant inhibition in human liver microsomes, CYP2C8; assay type: in vitro ADME
# Protocol: (§1) For each CYP isoform tested, 10 μM Compound I-1 was pre-incubated with pooled male and female human liver microsomes with NADPH in a 37° C. shaking water bath in duplicate to afford a final pre-incubation assay concentration of 100 mM KPO4/pH 7.4, 10 mM MgCl2, 2 mg/mL of human liver microsome (CellzDirect lot HLM HMMC-PL020) and 1 mM NADPH (Calbiochem). At each pre-incubation time point (0, 5, 10, 20, and 30 minutes) 20 μL was removed and placed in a second 96 well plate on ice. After all pre-incubation time points were collected 180 uL of additional human microsome liver preparation containing the appropriate CYP specific substrate at its Km concentration listed in Table 11 plus NADPH, was added to each time point. The samples were incubated for an additional 10 minutes in a 37° C. shaking water bath and then quenched with 75:25 acetonitrile (ACN):water containing the appropriate internal standards listed in Table 11. After brief mixing, the plate was centrifuged and the supernatant removed for analysis by LC/MS/MS (API 4000 Qtrap) for the formation of 6-hydroxy-testosterone (CYP3A4), 4-hydroxy-mephenyloin (CYP2C19), or 6-hydroxy-taxol (CYP2C8). […] Consistent with Example 5, Compound I-1 did inhibit CYP2C8-mediated metabolite formation at 10 μM, but not in a time dependent manner.
# [1] = Pharmacokinetic study in rats, intravenous and oral; assay type: in vivo; settings: rat
# Protocol: Rats were dosed either intravenously at 1 mg/kg dose or orally at 10 mg/kg dose with Compound I-1. Blood samples were collected over a 24 hour time-course. The plasma was analyzed for Compound I-1 and the pharmacokinetic parameters were determined.
# Pre-catheterized (jugular vein), male Sprague-Dawley rats (230-300 g) obtained from Charles River, Hollister, Calif., were acclimated at the vivarium of Rabbit and Rodent Diagnostic Associates (San Diego, Calif.) for at least three days following delivery and prior to entering a study. Rats were fasted overnight before intravenous or oral dosing. For intravenous dosing, Compound I-1 was dissolved in a 3:1 PEG400:H2O (Water For Injection) solution and administered at a dose of 1 mg/kg. For oral dosing, Compound I-1 was dissolved in a 22% hydroxypropyl-β-cyclodextrin (HPBCD) solution and administered at a dose of 10 mg/kg. Blood was collected at 5 (IV only), 15, 30 min, 1, 2, 4, 6, and 24 hr postdose using K3EDTA as anticoagulant and plasma was harvested for the analysis of Compound I-1.
# Plasma samples, calibration standards and quality control samples (20 μL) were extracted with six volumes of acetonitrile containing an internal standard (25 ng/mL) and analyzed using LC-MS/MS analysis (API 3200). Sample separation was achieved on a Zorbax SB C8 column (5 μm, 4.6×50 mm) at a flow rate of 1.6 mL/min. The gradient program was from 5-95% acetonitrile in 0.05% formic acid over one minute. The mass transition from m/z 577.18 to 421.10 was monitored for Compound I-1. The internal standard mass transitions monitored were 483.0 to 317.2.
# Pharmacokinetic parameters of Compound I-1 were calculated based on the plasma concentration-time profiles of each animal using the noncompartmental models in WinNonlin v5.2 (Pharsight, Mountain View, Calif.).
# FLT3 (D835H) = FLT3 (D835H) (Homo sapiens (Human), UniProt P36888, D835H); experiment: biochemical; assay type: binding
# Protocol: Competition binding assays used herein were developed, validated and performed as described in Fabian et al., Nature Biotechnology 2005, 23, 329-336. Kinases were produced as fusions to T7 phage (See, Fabian et al. or WO04/015142) or alternatively, the kinases were expressed in HEK-293 cells and subsequently tagged with DNA for PCR detection (See, WO08/005,310). […] The liganded beads were blocked with excess biotin and washed with blocking buffer (SeaBlock (Pierce), 1% BSA, 0.05% Tween 20, 1 mM DTT) to remove unbound ligand and to reduce non-specific binding. […] Test compounds were prepared as 100× stocks in DMSO and rapidly diluted into the aqueous environment. DMSO was added to control assays lacking a test compound. […] The kinase concentration in the eluates was measured by quantitative PCR. Each kinase was tested individually against each compound. Kds were determined using eleven serial threefold dilutions.
# FLT3 (N841I) = FLT3 (N841I) (Homo sapiens (Human), UniProt P36888, N841I); experiment: biochemical; assay type: binding
# Protocol: The liganded beads were blocked with excess biotin and washed with blocking buffer (SeaBlock (Pierce), 1% BSA, 0.05% Tween 20, 1 mM DTT) to remove unbound ligand and to reduce non-specific binding. […] Test compounds were prepared as 100× stocks in DMSO and rapidly diluted into the aqueous environment. DMSO was added to control assays lacking a test compound. […] The kinase concentration in the eluates was measured by quantitative PCR. Each kinase was tested individually against each compound. Kds were determined using eleven serial threefold dilutions.
# P-Glycoprotein = P-Glycoprotein (Homo sapiens (Human), UniProt P08183); experiment: Digoxin bidirectional MDR1-MDCK permeability, Compound I-1 as an inhibitor; settings: Surf.
# Protocol: (§2) MDR1-MDCK cells were grown to confluence for 5-10 days on 1 μm filters in 24-well plate. Aliquots of DMSO solute stocks were diluted into Hank's balanced salt solution (HBSS) pH 7.4 containing 25 mM HEPES+−0.05% PS80 to give 0.5, 1.5 or 5.0 μM solute concentrations. Final concentrations of DMSO in the assayed samples ranged from 0.005% for the 0.5 μM concentration to 0.05% for the 5 μM concentration. […] The solute containing donor solutions were transferred to either the apical or basolateral chamber of the permeability diffusion apparatus. Receiver solutions consisted of Hank's balanced salt solution (HBSS) pH 7.4 containing 25 mM HEPES+0.05% PS80. The entire receiver solution was removed at 20 minute intervals and manually replaced with fresh buffer. The concentration of transported solute during each sampling interval was determined by HPLC/UV/MS. The standard curve was produced from serial dilutions of the dosing solution. D0 was a 50 μl aliquot of dosing solution from the donor well diluted with 450 μl of HBSS. The standard curve was produced from serial dilutions of the dosing solution (1:10, 1:25, 1:50, 1:100, 1:500 and 1:1000). Permeability coefficients were calculated for each sampling interval using the following equation:
# (§3) [formula] Where VD=volume of donor (0.4 ml for Ap_Bl flux and 1.0 ml for Bl_Ap flux), A=surface area of the filter on which the monolayer was grown (0.31 cm2), MD(0)=mass in the donor at the beginning of the ith sampling interval, MR (t)=mass in the receiver at time t, and _t is the experimental interval (20 minutes). The apparent permeability, Papp, is then calculated as the average:
# (§4) The average and standard deviation from the intervals is reported. Mass balance in the system was ascertained by comparing the sum of total transported solute and remaining donor solute with the starting mass of solute and is expressed as a percentage of donor solute at time zero. […] At the termination of the experiment, the cell monolayers are stored in the cold until the data is analyzed. After analysis, if mass balance falls below 70% in a given experiment, those monolayers are retrieved and extracted with acetonitrile. After separation of cellular debris, the extract is analyzed for recoverable solute of interest. […] All determinations were performed in duplicate.
# MDR1-MDCK cells = experiment: Bidirectional MDR1-MDCK permeability, Compound I-1 as a substrate; settings: 5 μM, Surf.
# Protocol: as §2, §3, §4
# CYP3A4 = CYP3A4 (Homo sapiens (Human), UniProt P08684); experiment: Time dependant inhibition in human liver microsomes, CYP3A4; assay type: in vitro ADME; settings: CYP3A4, 10 μM, pre-incubation 0-30 minutes
# Protocol: as §1
# CYP1A2 = CYP1A2 (Homo sapiens (Human), UniProt P05177); experiment: Cyp enzyme inhibition assay in human liver microsomes, CYP1A2; assay type: in vitro ADME; settings: CYP1A2, substrate phenacetin
# Protocol: The ability of the compound I-1 to inhibit human metabolizing enzymes CYP3A4, CYP2C9, […], CYP2C19 and CYP1A2, was assessed using those enzymes found collectively in human liver microsomes. The test compound I-1 was prepared as a solution in DMSO or acetonitrile and plated in duplicate rows of a 96-well plate (Nunc) for a final assay concentration of 40 μM in 0.2% DMSO (or 2% acetonitrile) in the first column and serially diluted two-fold going down the row. A known selective inhibitor of a given CYP enzyme listed in Table 8 was selected as the appropriate positive control. For each CYP enzyme inhibition assay, an appropriate enzyme-substrate mixture was prepared to afford a final assay concentration of 75 mM KPO4/pH 7.4, 6.5 mM MgCl2, 0.25 mg/mL pooled male and female human liver microsome (CellzDirect lot HMMC-PL020) with the amounts of the appropriate substrate for each CYP enzyme assay given in Table 8. The enzyme-substrate mixture was added to columns 1 through 10 and column 11 served as a negative control with enzyme solution lacking substrate. A solution of NADPH (Calbiochem) was then added to all rows except for one where NADPH would be added after the incubation period, in order to detect NADPH-independent non-CYP-mediated metabolism. The plate was briefly vortexed and left to shake in a 37° C. water bath for 20 minutes. […]
# [2] = male, Sprague-Dawley, plasma, intravenous, 1 mg/kg
# [3] = male, Sprague-Dawley, plasma, oral, 10 mg/kg
# [4] = Table 17, Digoxin 1 μM + Compound I-1 5.0 μM
# [5] = preliminary experiment, Digoxin 1 μM + Compound I-1 0.5 μM
# [6] = preliminary experiment, Digoxin 1 μM + Compound I-1 1.5 μM
# [7] = preliminary experiment, Digoxin 1 μM + Compound I-1 5.0 μM
# Sequence of P-Glycoprotein (P08183 whole entry): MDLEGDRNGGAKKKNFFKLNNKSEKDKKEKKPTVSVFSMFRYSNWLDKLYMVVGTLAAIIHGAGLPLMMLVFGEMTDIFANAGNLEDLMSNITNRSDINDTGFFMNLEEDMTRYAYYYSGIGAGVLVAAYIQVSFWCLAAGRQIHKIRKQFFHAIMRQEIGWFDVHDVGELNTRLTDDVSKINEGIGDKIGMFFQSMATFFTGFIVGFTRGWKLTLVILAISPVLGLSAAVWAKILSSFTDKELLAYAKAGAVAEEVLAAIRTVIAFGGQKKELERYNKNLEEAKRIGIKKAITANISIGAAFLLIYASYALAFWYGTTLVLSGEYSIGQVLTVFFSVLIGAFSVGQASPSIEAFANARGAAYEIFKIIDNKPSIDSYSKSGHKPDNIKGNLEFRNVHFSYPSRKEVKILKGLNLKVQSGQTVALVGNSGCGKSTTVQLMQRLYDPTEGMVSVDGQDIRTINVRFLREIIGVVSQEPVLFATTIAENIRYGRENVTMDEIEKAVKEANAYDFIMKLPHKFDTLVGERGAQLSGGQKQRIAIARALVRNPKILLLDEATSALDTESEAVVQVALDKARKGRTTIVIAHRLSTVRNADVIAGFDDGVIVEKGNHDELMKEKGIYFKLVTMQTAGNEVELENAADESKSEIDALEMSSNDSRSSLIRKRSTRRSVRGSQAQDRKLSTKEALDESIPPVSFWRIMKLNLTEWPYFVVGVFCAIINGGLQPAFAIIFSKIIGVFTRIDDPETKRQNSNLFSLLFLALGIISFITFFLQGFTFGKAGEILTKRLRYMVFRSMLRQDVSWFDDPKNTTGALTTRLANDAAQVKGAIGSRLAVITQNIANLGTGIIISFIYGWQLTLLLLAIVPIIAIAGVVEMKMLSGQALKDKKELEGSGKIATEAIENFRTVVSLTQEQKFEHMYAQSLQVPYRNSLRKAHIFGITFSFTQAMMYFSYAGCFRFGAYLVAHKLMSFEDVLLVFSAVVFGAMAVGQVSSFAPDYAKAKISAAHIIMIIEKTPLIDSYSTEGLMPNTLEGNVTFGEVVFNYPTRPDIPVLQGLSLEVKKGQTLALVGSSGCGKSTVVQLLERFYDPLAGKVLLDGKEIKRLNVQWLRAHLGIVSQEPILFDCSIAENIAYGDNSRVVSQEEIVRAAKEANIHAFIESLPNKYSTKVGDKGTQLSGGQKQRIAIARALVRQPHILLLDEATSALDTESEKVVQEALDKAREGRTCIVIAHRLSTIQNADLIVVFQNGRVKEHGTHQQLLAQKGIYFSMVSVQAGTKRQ
# Sequence of CYP2C8 (P10632 whole entry, canonical isoform): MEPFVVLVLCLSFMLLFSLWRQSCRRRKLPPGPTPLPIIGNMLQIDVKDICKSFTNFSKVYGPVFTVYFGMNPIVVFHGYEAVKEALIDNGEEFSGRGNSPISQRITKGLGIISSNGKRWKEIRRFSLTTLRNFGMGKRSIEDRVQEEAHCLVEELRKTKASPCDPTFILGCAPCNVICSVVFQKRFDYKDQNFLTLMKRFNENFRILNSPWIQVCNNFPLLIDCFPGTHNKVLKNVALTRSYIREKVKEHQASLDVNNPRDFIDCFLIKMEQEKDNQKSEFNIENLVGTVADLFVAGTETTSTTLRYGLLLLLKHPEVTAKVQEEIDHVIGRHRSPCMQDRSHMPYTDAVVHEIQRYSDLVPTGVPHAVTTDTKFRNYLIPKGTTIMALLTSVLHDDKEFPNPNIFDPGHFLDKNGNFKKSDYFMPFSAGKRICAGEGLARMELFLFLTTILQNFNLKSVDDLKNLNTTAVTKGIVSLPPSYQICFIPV
# Sequence of CYP3A4 (P08684 whole entry): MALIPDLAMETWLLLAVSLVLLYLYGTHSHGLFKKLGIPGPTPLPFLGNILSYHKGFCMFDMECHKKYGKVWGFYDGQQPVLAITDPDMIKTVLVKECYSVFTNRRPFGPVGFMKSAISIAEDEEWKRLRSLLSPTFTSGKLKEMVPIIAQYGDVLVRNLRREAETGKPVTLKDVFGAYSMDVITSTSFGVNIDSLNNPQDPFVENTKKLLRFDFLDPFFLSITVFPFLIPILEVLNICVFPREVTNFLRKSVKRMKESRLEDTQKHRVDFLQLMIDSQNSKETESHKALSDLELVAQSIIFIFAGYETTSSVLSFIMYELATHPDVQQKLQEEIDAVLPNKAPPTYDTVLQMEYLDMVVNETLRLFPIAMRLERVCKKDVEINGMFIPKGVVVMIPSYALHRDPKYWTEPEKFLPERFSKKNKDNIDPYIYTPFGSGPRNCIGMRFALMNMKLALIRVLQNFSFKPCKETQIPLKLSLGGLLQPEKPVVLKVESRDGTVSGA
# Sequence of CYP1A2 (P05177 whole entry): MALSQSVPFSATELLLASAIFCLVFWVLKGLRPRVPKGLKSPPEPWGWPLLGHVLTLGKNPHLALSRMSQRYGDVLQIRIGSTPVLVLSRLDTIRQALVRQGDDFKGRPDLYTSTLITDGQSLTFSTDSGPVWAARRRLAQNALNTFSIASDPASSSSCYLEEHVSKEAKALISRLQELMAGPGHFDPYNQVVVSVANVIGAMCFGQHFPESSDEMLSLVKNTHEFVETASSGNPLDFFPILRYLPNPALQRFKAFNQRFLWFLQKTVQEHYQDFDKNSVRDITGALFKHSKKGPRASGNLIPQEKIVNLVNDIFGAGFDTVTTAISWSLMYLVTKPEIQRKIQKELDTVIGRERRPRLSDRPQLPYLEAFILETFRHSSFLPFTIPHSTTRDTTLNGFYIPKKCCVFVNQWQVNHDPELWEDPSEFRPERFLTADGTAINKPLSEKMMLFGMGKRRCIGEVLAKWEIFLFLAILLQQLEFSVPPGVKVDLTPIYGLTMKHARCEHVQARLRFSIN
smiles,measurement,setting,value
"CC(C)(CO)c1cc(NC(=O)Nc2ccc(-c3cn4c(n3)sc3cc(OCCN5CCOCC5)ccc34)cc2)no1 [Compound I-1, 1-[5-(2-hydroxy-1,1-dimethyl-ethyl)-isoxazol-3-yl]-3-{4-[7-(2-morpholin-4-yl-ethoxy)-benzo[d]imidazo[2,1-b]thiazol-2-yl]-phenyl}-urea]",Inhibition of CYP2C8-mediated metabolite formation,CYP2C8; 10 μM,did inhibit
same,Time dependant inhibition,"CYP2C8; CYP2C8, 10 μM, pre-incubation 0-30 minutes",not a time dependant inhibitor
same,AUC(0-inf),[1]; [2],3.29 µM·h
same,Vd,[1]; [2],1.34 L/kg
same,clearance,[1]; [2],8.83 mL/min/kg
same,half-life,[1]; [2],3.4 h
same,AUC(0-inf),[1]; [3],2.27 µM·h
same,Cmax,[1]; [3],360 nM
same,Tmax,[1]; [3],1.2 h
same,half-life,[1]; [3],3.7 h
same,bioavailability,"[1]; male, Sprague-Dawley, plasma, oral, 10 mg/kg, calculated with the dose normalized AUC0-inf IV data, read-out: F (absolute bioavailability)",6.9%
same,T1/2,"[1]; intravenous, 1 mg/kg",3.4 h
same,Kd,FLT3 (D835H),1.9 nM
same,Kd,FLT3 (N841I),0.77 nM
same,Digoxin Mass Bal (AP→BL),P-Glycoprotein; [4],104%
same,Digoxin Mass Bal (BL→AP),P-Glycoprotein; [4],98%
same,Digoxin Mass Bal (AP→BL),P-Glycoprotein; [5],98%
same,Digoxin Mass Bal (BL→AP),P-Glycoprotein; [5],91%
same,Digoxin Mass Bal (AP→BL),P-Glycoprotein; [6],98%
same,Digoxin Mass Bal (BL→AP),P-Glycoprotein; [6],94%
same,Digoxin Mass Bal (AP→BL),P-Glycoprotein; [7],93%
same,Digoxin Mass Bal (BL→AP),P-Glycoprotein; [7],99%
same,Assymetry Index,MDR1-MDCK cells,1.7
same,PeAP→BL,MDR1-MDCK cells,2.81 ×10⁻⁶ cm/s
same,PeBL→AP,MDR1-MDCK cells,6.31 ×10⁻⁶ cm/s and 4.67 ×10⁻⁶ cm/s
same,Time dependant inhibition,CYP3A4,not a time dependant inhibitor
same,IC50,CYP1A2,> 40000 nM
